# Measured values from paper PMC6327999, “Hydroxyl-substituted double Schiff-base condensed 4-piperidone/cyclohexanones as potential anticancer agents with biological evaluation” (Journal of Enzyme Inhibition and Medicinal Chemistry, 2019).
# Tested on: human gastric adenocarcinoma cells (SGC7901)
# Test: Cytotoxicity, MTT assay, SGC7901
# Type: cell-based
# Details: Homo sapiens, SGC-7901; MTT, 24 hours
# Excerpt: (§1) Compounds 2a–d, 3a–e, 4a–e, 5a–d, and 6a–c were screened against human neoplastic cell lines such as human lung carcinoma cells (A549), human gastric adenocarcinoma cells (SGC7901), human cervical carcinoma cells (HeLa), human liver hepatocellular carcinoma cell line (Hepg2), human chronic myelogenous leukemia cell line (K562), human acute mononuclear granulocyte leukemia (THP-1), human normal heptical cell line (LO2) (Table 1) using modified MTT assay (3-(4,5-dimethyl-2-thiazolyl)-2,5-diphenyl-2-H-tetrazolium bromide, MTT, Dojindo Laboratories, Tokyo, Japan). All cell lines were maintained at 37 °C in a humidified 5% CO2 and 95% air atmosphere. The HePG2 cell lines were cultured in DMEM containing 10% fetal bovine serum. Other cell lines were grown in medium 1640 and supplemented with 10% fetal bovine serum. […] Controls were prepared with 0.1% DMSO (v/v) only. The cells were seeded in a 96-well plate in 200 µL medium per well at a density of 1 × 10^4 cells/well for 24 hours. The cells were treated with serial concentrations of compound and incubated for 24 hours. Cells with only culture media were used as control. After the media was removed, 20 µL of MTT (5 mg/mL) was added then the plates were incubated for 4 hours at 37 °C in cell culture incubator. The MTT containing media were removed and then 150 µL of DMSO was added to dissolve the dark-blue formazan crystals. The optical density (OD) was measured by a multi-well plate reader (TECAN, Männedorf, Switzerland) at 570 nm. The results are expressed as a decrease in the cell viability (%) in comparison to untreated controls. The concentration of each compound was examined in triplicate, and the IC50 values are expressed in Table 1. The concentrations of the compounds were 50, 20, 10, 5, 2.5, 1, 0.5, 0.1, 0.05 and 0.01 µg/mL. Doxorubicin (DOX) and Curcumin were used as positive controls. […] The concentrations of curcumin used were 100, 50, 25, 12.5, 6.25, 3.125, 1, 0.5 and 0.1 µg/mL.
row,SMILES,IC50
1,"COc1cccc2c1C(=O)c1c(O)c3c(c(O)c1C2=O)C[C@@](O)(C(=O)CO)C[C@@H]3O[C@H]1C[C@H](N)[C@H](O)[C@H](C)O1 [DOX, Doxorubicin, reference compound]",7 ± 0.4 µM
2,O=C1/C(=C/c2cc(/N=C/c3cc(O)ccc3O)ccc2F)CNC/C1=C\c1cc(/N=C/c2cc(O)ccc2O)ccc1F [5b],1.3 ± 0.2 µM

# Same assay, conditions: quotient of the IC50 values towards nonmalignant LO2 cells
row,SMILES,SGC7901 SI
1,O=C1/C(=C/c2cc(/N=C/c3cc(O)ccc3O)ccc2F)CNC/C1=C\c1cc(/N=C/c2cc(O)ccc2O)ccc1F [5b],10.9

# Tested on: human acute mononuclear granulocyte leukemia (THP-1)
# Test: Cytotoxicity, MTT assay, THP-1
# Type: cell-based
# Details: Homo sapiens, THP-1; MTT, 24 hours
# Excerpt: as §1
row,SMILES,IC50
1,"COc1cccc2c1C(=O)c1c(O)c3c(c(O)c1C2=O)C[C@@](O)(C(=O)CO)C[C@@H]3O[C@H]1C[C@H](N)[C@H](O)[C@H](C)O1 [DOX, Doxorubicin, reference compound]",0.5 ± 0.2 µM
2,O=C1/C(=C/c2cc(/N=C/c3cc(O)ccc3O)ccc2F)CNC/C1=C\c1cc(/N=C/c2cc(O)ccc2O)ccc1F [5b],2.2 ± 0.1 µM

# Same assay, conditions: quotient of the IC50 values towards nonmalignant LO2 cells
row,SMILES,THP-1 SI
1,O=C1/C(=C/c2cc(/N=C/c3cc(O)ccc3O)ccc2F)CNC/C1=C\c1cc(/N=C/c2cc(O)ccc2O)ccc1F [5b],6.4

# Tested on: human cervical carcinoma cells (HeLa)
# Test: Cytotoxicity, MTT assay, HeLa
# Type: cell-based
# Details: Homo sapiens, HeLa; MTT, 24 hours
# Excerpt: as §1
row,SMILES,IC50
1,"COc1cccc2c1C(=O)c1c(O)c3c(c(O)c1C2=O)C[C@@](O)(C(=O)CO)C[C@@H]3O[C@H]1C[C@H](N)[C@H](O)[C@H](C)O1 [DOX, Doxorubicin, reference compound]",2.1 ± 0.3 µM
2,O=C1/C(=C/c2cc(/N=C/c3cc(O)ccc3O)ccc2F)CNC/C1=C\c1cc(/N=C/c2cc(O)ccc2O)ccc1F [5b],4.2 ± 0.5 µM

# Same assay, conditions: quotient of the IC50 values towards nonmalignant LO2 cells
row,SMILES,HeLa SI
1,O=C1/C(=C/c2cc(/N=C/c3cc(O)ccc3O)ccc2F)CNC/C1=C\c1cc(/N=C/c2cc(O)ccc2O)ccc1F [5b],3.4

# Tested on: human lung carcinoma cells (A549)
# Test: Cytotoxicity, MTT assay, A549
# Type: cell-based
# Details: Homo sapiens, A549; MTT, 24 hours
# Excerpt: as §1
row,SMILES,IC50
1,"COc1cccc2c1C(=O)c1c(O)c3c(c(O)c1C2=O)C[C@@](O)(C(=O)CO)C[C@@H]3O[C@H]1C[C@H](N)[C@H](O)[C@H](C)O1 [DOX, Doxorubicin, reference compound]",3.8 ± 0.1 µM
2,O=C1/C(=C/c2cc(/N=C/c3cc(O)ccc3O)ccc2F)CNC/C1=C\c1cc(/N=C/c2cc(O)ccc2O)ccc1F [5b],3 ± 0.1 µM

# Same assay, conditions: quotient of the IC50 values towards nonmalignant LO2 cells
row,SMILES,A549 SI
1,O=C1/C(=C/c2cc(/N=C/c3cc(O)ccc3O)ccc2F)CNC/C1=C\c1cc(/N=C/c2cc(O)ccc2O)ccc1F [5b],4.8

# Tested on: human liver hepatocellular carcinoma cell line (Hepg2)
# Test: Cytotoxicity, MTT assay, HePG2
# Type: cell-based
# Details: Homo sapiens, HepG2; MTT, 24 hours
# Excerpt: as §1, with “µg/mL.” for “µg/mL. Doxorubicin (DOX) and Curcumin were used as positive controls.”
row,SMILES,IC50
1,"COc1cccc2c1C(=O)c1c(O)c3c(c(O)c1C2=O)C[C@@](O)(C(=O)CO)C[C@@H]3O[C@H]1C[C@H](N)[C@H](O)[C@H](C)O1 [DOX, Doxorubicin, reference compound]",0.6 ± 0.1 µM
2,O=C1/C(=C/c2cc(/N=C/c3cc(O)ccc3O)ccc2F)CNC/C1=C\c1cc(/N=C/c2cc(O)ccc2O)ccc1F [5b],3.3 ± 0.2 µM

# Same assay, conditions: quotient of the IC50 values towards nonmalignant LO2 cells
row,SMILES,HePG2 SI
1,O=C1/C(=C/c2cc(/N=C/c3cc(O)ccc3O)ccc2F)CNC/C1=C\c1cc(/N=C/c2cc(O)ccc2O)ccc1F [5b],4.3

# Tested on: human carcinoma cell lines A549, SGC7901, HePG2, HeLa, K562, THP-1
# Test: Cytotoxicity, MTT assay, panel of human carcinoma cell lines (average / overall)
# Type: cell-based
# Details: Homo sapiens; average over the six carcinoma cell lines; read-out: Ave IC50
# Excerpt: as §1
# The cytotoxicity activities against human carcinoma cell lines A549, SGC7901, HePG2, HeLa, K562, THP-1 and cytotoxicity toward LO2 cell lines were evaluated by MTT method. DOX and curcumin were used as positive control. The selectivity index (SI) is the quotient of the IC50 values towards nonmalignant LO2 cells. […] Especially for 4a–e, 5a–d, and 6a–c, this ratio can reach about 92%.
row,SMILES,IC50
1,"COc1cccc2c1C(=O)c1c(O)c3c(c(O)c1C2=O)C[C@@](O)(C(=O)CO)C[C@@H]3O[C@H]1C[C@H](N)[C@H](O)[C@H](C)O1 [DOX, Doxorubicin, reference compound]",2.6 µM
2,O=C1/C(=C/c2cc(/N=C/c3cc(O)ccc3O)ccc2F)CNC/C1=C\c1cc(/N=C/c2cc(O)ccc2O)ccc1F [5b],3.3 µM

# Same assay, conditions: average over the six carcinoma cell lines
row,SMILES,Ave SI
1,O=C1/C(=C/c2cc(/N=C/c3cc(O)ccc3O)ccc2F)CNC/C1=C\c1cc(/N=C/c2cc(O)ccc2O)ccc1F [5b],5.4

# Tested on: HepG2 xenografts
# Test: In vivo antitumor efficacy, HepG2-bearing nude mice
# Set-up: species or system Balb/c nude mice
# Details: DOX 1.0 mg/kg every two days for 20 days
# Experimental: The antitumor effect was investigated on the seven-week-old female Balb/c nude mice (n = 30) weighing 19–21 grams (Shanghai Laboratory Animal Center). Briefly, 0.2 mL HepG2 cells (1 × 10^7/mL) were inoculated subcutaneously into the alar left of each mouse. On the third day after the inoculation, the HepG2-bearing mice were randomly divided into five groups (n = 6/group) and administrated the according drug or solvent. […] The control group was administrated of saline as negative control. The body weight and tumor volumes calculation were recorded from the day of treatment, and the tumor volumes were calculated using the following equation: tumor volume = length × (width)^2 × π/6. Animal experiments were reviewed and approved by the Binzhou Medical University Experimental Animal Committee.
row,SMILES,tumor growth inhibition
1,"COc1cccc2c1C(=O)c1c(O)c3c(c(O)c1C2=O)C[C@@](O)(C(=O)CO)C[C@@H]3O[C@H]1C[C@H](N)[C@H](O)[C@H](C)O1 [DOX, Doxorubicin, reference compound]",suppressed significantly

# Tested on: human chronic myelogenous leukemia cell line (K562)
# Test: Cytotoxicity, MTT assay, K562
# Type: cell-based
# Details: Homo sapiens, K562; MTT, 24 hours
# Excerpt: as §1
row,SMILES,IC50
1,"COc1cccc2c1C(=O)c1c(O)c3c(c(O)c1C2=O)C[C@@](O)(C(=O)CO)C[C@@H]3O[C@H]1C[C@H](N)[C@H](O)[C@H](C)O1 [DOX, Doxorubicin, reference compound]",1.6 ± 0.2 µM
2,O=C1/C(=C/c2cc(/N=C/c3cc(O)ccc3O)ccc2F)CNC/C1=C\c1cc(/N=C/c2cc(O)ccc2O)ccc1F [5b],5.7 ± 0.4 µM

# Same assay, conditions: quotient of the IC50 values towards nonmalignant LO2 cells
row,SMILES,K562 SI
1,O=C1/C(=C/c2cc(/N=C/c3cc(O)ccc3O)ccc2F)CNC/C1=C\c1cc(/N=C/c2cc(O)ccc2O)ccc1F [5b],2.5

# Tested on: human normal heptical cell line (LO2)
# Test: Cytotoxicity, MTT assay, non-malignant LO2
# Type: cell-based
# Details: 24 hours, non-malignant cells
# Excerpt: as §1
row,SMILES,IC50
1,"COc1cccc2c1C(=O)c1c(O)c3c(c(O)c1C2=O)C[C@@](O)(C(=O)CO)C[C@@H]3O[C@H]1C[C@H](N)[C@H](O)[C@H](C)O1 [DOX, Doxorubicin, reference compound]",6.1 ± 0.5 µM
2,O=C1/C(=C/c2cc(/N=C/c3cc(O)ccc3O)ccc2F)CNC/C1=C\c1cc(/N=C/c2cc(O)ccc2O)ccc1F [5b],14.1 ± 1 µM
